Patent US12440466B2, “Fatty acid derivatives for treating non-alcoholic steatohepatitis” (BASF AS, priority 2017, dated 2025)
Marks after values point to notes of the source that are not given here.

What was measured:
[1] = test system: ob/ob AMLN mice; experiment: Hepatic steatosis and hepatic cholesterol content in ob/ob AMLN mice; assay type: in vivo, mouse; conditions: 8 weeks, Compound A 45-135 mg/kg, OCA 30 mg/kg
Procedure: (§1) Obese diet-induced B6.V-Lepob/Jrj mice (ob/ob) are consistently fibrosis (liver) prone when cholesterol (2%), 40% fat (containing 18% trans-fatty acids) and 20% fructose are added to a high-caloric diet (i.e., AMLN high-fat diet). ob/ob mice on AMLN diet (termed ‘ob/ob AMLN mice’) develop steatohepatitis and fibrosis within a shorter timeframe ([…]) compared with wild-type C57BL/6 mice (AMLN mice) fed the same diet. ob/ob AMLN mice provide an obese diet-induced model of NASH that also allows the study of effects on glycemic control. Development of NASH in the ob/ob AMLN model is confirmed by biopsy.
(§2) In Biological Examples 10, 13-14, and 16-18, studies were performed in male ob/ob mice (5 weeks old) fed an AMLN high-fat diet for 18 weeks, then randomized into 6 groups (n=10 per group) to receive either Compound A (at 3 different daily doses, 45 mg/kg, 90 mg/kg or 135 mg/kg) via diet, 30 mg/kg bw per day obeticholic acid (OCA) via diet, or no treatment (vehicle) for a further 8 weeks. Assessment of NASH related parameters and fibrosis was made at study end by quantitative immune histochemistry (IHC) measurements.

[2] = test system: genes regulating extracellular matrix (ECM) stability or fibrolysis; experiment: Hepatic ECM stability/fibrolysis gene expression by RNA sequencing in ob/ob AMLN mice; assay type: in vivo, mouse; conditions: 4 weeks, Compound A 112 mg/kg, pioglitazone 30 mg/kg
Procedure: as §1
(§3) In Biological Examples 10-12, 15, and 19, studies were performed in male ob/ob mice (5 weeks old) fed an AMLN high-fat diet for 15 weeks, then randomized into 3 groups (n=10 per group) to receive either 112 mg/kg bw per day of Compound A via diet, 30 mg/kg bw per day pioglitazone via diet or no treatment (vehicle) for a further 4 weeks. An oral glucose tolerance test (OGTT) was performed at week 3. Hepatic fibrosis was assessed via measurements of hepatic fibrogenic/fibrolytic gene expression by RNA sequencing at 4 weeks.

[3] = test system: LX-2 human hepatic stellate cells; experiment: LX-2 cell viability by MTS assay; assay type: cell-based; conditions: LX-2 cells; 24 hours; Compound A 10-75 μM, OA 75 μM
Procedure: Stellate cells are resident liver cells and the major cell type involved in the initiation and progression of liver fibrosis. In Biological Example 20, in vitro studies were performed on cultured human stellate cells (LX-2 cells) to assess direct effects of Compound A on these cells. Cells were treated for 24 hours with Compound A (10 μM, 25 μM, 50 μM, or 75 μM) or oleic acid (OA; 75 μM) and bromodeoxyuridine (BrdU) incorporation was assessed to determine effects on proliferation. A MTS (3-(4,5-dimethylthiazol-2-yl)-5-(3-carboxymethoxyphenyl)-2-(4-sulfophenyl)-2H-tetrazolium) assay was used to determine cell viability.
Cell proliferation of LX-2 human hepatic stellate cells treated for 24 hours with 10-75 μM of Compound A or oleic acid (OA) (75 μM) was assessed by BrdU incorporation. The results are normalised mean values ±S.E.M. of 5 independent experiments for icosabutate and 2 independent experiments for OA. […] The reduction in proliferation by Compound A was 25-34% at 24 hours whereas OA had no effect. The comparisons were made by one-way ANOVA with Dunnett's correction for multiple comparisons.

[4] = test system: TNF-α mRNA; experiment: Hepatic TNF-α mRNA expression by qPCR, CDAA/high-fat diet mouse model; assay type: in vivo; conditions: CDAA/high-fat fed mice
Source text: Mice were fed either choline-sufficient (CS) or choline deficient high-fat diets (31% total calories; “CDAA/high-fat”). The NASH inducing diet was instigated 6 weeks prior to the commencement of treatment in order to design the study as a treatment/reversal set-up rather than prophylaxis.
After 6 weeks of either the CS- or CDAA diet, mice were orally administered Compound A or comparison Compound N, both at 2 doses, 0.15 mmol/kg bw/day (low-dose, LD) and 0.3 mmol/kg bw per day (high-dose, HD). The test substances were administered orally as admix to the high-fat diet. Hepatic fibrosis was assessed by both measurement of hydroxyproline (HYP) content and Sirius Red (SR) morphometry. Fibrosis, inflammation and metabolism related transcripts levels were measured by quantitative real-time polymerase chain reaction (qPCR).
Studies were performed in male C56BL/6J mice (9 weeks old). Mice were divided into 6 experimental groups (n=9 per group) containing either CS or CDAA/high-fat diets, as described above. The NASH inducing CDAA/high fat diet was instigated 6 weeks prior to the commencement of treatment in order to assess treatment/reversal rather than prophylaxis. […] Compound A was administered orally as admix to the high-fat diet whilst GLP-1 agonist was delivered via intraperitoneal injection (i.p.). Fibrosis, inflammation and metabolism related transcripts levels were measured by quantitative real-time polymerase chain reaction (qPCR) in isolated liver tissue.

[5] = test system: canonical genes regulating hepatic fibrogenesis; experiment: Hepatic fibrogenic gene expression by RNA sequencing in ob/ob AMLN mice; assay type: in vivo, mouse; conditions: 4 weeks, Compound A 112 mg/kg, pioglitazone 30 mg/kg
Procedure: as §1, §3

[6] = Body weight, liver weight and food intake in ob/ob AMLN mice; assay type: in vivo, mouse
Procedure: as §1, §3, §2

[7] = test system: ob/ob AMLN mice; experiment: Hepatic hydroxyproline (HYP) content in ob/ob AMLN mice; assay type: in vivo, mouse; conditions: 8 weeks; for HYP content, total: p<0.01; for HYP content, relative: p<0.05
Procedure: as §1, §2
To corroborate the anti-fibrotic effects seen with quantitative IHC, hepatic concentrations of hydroxyproline (HYP) were measured, as shown in FIG. 6E and FIG. 6F.

[8] = test system: ob/ob AMLN mice; experiment: Plasma triglyceride and total cholesterol levels in ob/ob AMLN mice; assay type: in vivo, mouse; conditions: 8 weeks
Procedure: as §1, §2

[9] = test system: ob/ob AMLN mice; experiment: Plasma ALT and AST (hepatocellular damage) in ob/ob AMLN mice; assay type: in vivo, mouse; conditions: 8 weeks
Procedure: as §1, §2
To assess the effects of Compound A and pioglitazone on hepatocellular injury or damage in ob/ob AMLN mice, plasma alanine aminotransferase (ALT) and aspartate transaminase (AST) were measured after 8 weeks of administration.

[10] = test system: hepatic transcriptome; experiment: Hepatic transcriptome (gene expression probes) in APOE*3.CETP transgenic mice; assay type: in vivo, mouse; conditions: Compound A at a fraction of the dose of the omega-3 ethyl esters, data not shown
[11] = 8 weeks, Compound A 45, 90 and 135 mg/kg, OCA 30 mg/kg bw per day

In the case of `CC/C=C\C/C=C\C/C=C\C/C=C\C/C=C\CCCCOC(CC)C(=O)O` (stereo not shown) [Compound A, 2-((5Z,8Z,11Z,14Z,17Z)-icosa-5,8,11,14,17-pentaenyloxy)butanoic acid], the “steatosis (percent area or total lipid content)” value [1] is reported as “significantly reduced”, the “hepatic expression of LOX-like 2 (LOXL2)” value [2] is reported as “significantly reduced” and the “hepatic expression of LOXL1” value [2] is reported as “significantly reduced”. For the same compound, the “hepatic expression of TIMP1” value [2] was “significantly reduced”, the “hepatic expression of lysyl-oxidase (LOX)” value [2] was “significantly reduced” and the “cell viability (MTS assay)” value [3] was “neither Compound A nor OA showed a significant effect”. The “TNF-α (relative mRNA expression)” value ([4]; Compound A 0.3 mmol/kg bw/day oral, GLP-1a 0.4 mg/kg once weekly i.p., alone or combined) was 0.65***, the “TNF-a (relative mRNA expression)” value ([4]; HD 0.3 mmol/kg bw per day) was 0.65*** and the “TNF-a (relative mRNA expression)” value ([4]; LD 0.15 mmol/kg bw/day) was 0.75***. For the same compound, the “hepatic HSP47 expression” value [5] was “significantly reduced”, the “hepatic PDGF-β expression” value [5] was “significantly reduced” and the “hepatic PDGFR-β expression” value [5] was “significantly reduced”. For the same compound, the “hepatic col1A1 expression” value [5] was “significantly reduced”, the “hepatic col3A1 expression” value [5] was “significantly reduced” and the “hepatic col4A1 expression” value [5] was “significantly reduced”. The body weight ([6]; 4 weeks, Compound A 112 mg/kg) was “no effect”, the body weight [6, 11] was “neither Compound A (45 mg/kg, 90 mg/kg, and 135 mg/kg) nor OCA significantly affected body weight” and the food intake [6, 11] was “not affected”. For the same compound, the “HYP content, total” value ([7]; Compound A 90 mg/kg) was “reduced”, the “HYP content, relative” value ([7]; Compound A 90 mg/kg) was “reduced” and the “HYP content, total” value ([7]; Compound A 135 mg/kg) was “reduced”. The “HYP content, relative” value ([7]; Compound A 135 mg/kg) was “reduced”, the “plasma total cholesterol levels” value ([8]; Compound A 90 mg/kg) was “comparable reductions” and the plasma triglyceride levels ([8]; Compound A 90 mg/kg) was “comparable reductions”. For the same compound, the “plasma total cholesterol levels” value ([8]; Compound A 135 mg/kg) was “comparable reductions”, the plasma triglyceride levels ([8]; Compound A 135 mg/kg) was “comparable reductions” and the “plasma ALT” value ([9]; Compound A 90 mg/kg, p<0.01) was “marked and significant reduction”. The “plasma AST” value ([9]; Compound A 90 mg/kg, p<0.05) was “significantly reduced”, the “plasma ALT” value ([9]; Compound A 135 mg/kg, p<0.001) was “marked and significant reduction” and the “plasma AST” value ([9]; Compound A 135 mg/kg, p<0.01) was “significantly reduced”. For the same compound, the “gene expression probes significantly up- or down-regulated in the liver” value [10] was greater than 1094.
